Data reported in ChEMBL document CHEMBL1201862, “PubChem BioAssay data set” (2004).
Active and inactive are the calls of the source.

Key:
[1] = biological target: E3 ubiquitin-protein ligase Mdm2 (Homo sapiens, UniProt Q00987); test: enhancers of MDM2-luciferase reporter signal, concentration-effect titration, project on inhibitors of MDM2 ubiquitin ligase, cellular assay, luminescent readout, 384-well plate format (AID 1394); type: functional;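 further: MDM2 E3 inhibitors raise luminescence so EC50 is for signal enhancement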
[2] = P. falciparum 3D7-ScDHODH growth inhibitors, dose response, SYBR Green, dry powder samples (AID 1159570); type: functional, cell-based;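 further: parasite growth measured after 72 hours of compound exposure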
[3] = HepG2 cell cytotoxicity, dose response, cytotoxicity control, plate reader, dry powder samples (AID 1159569); type: functional, cell-based;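 further: inhibitor potency with signal falling toward the positive control level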
[4] = P. falciparum Dd2 growth inhibitors, dose response, SYBR Green, cherry-picked samples (AID 1159567); type: functional, cell-based
[5] = P. falciparum Dd2 growth inhibitors, dose response, SYBR Green, dry powder samples (AID 1159566); type: functional, cell-based;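 further: potency for growth inhibition with lower SYBR green DNA signal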
[6] = HepG2 cell cytotoxicity, dose response, cytotoxicity control, cherry-picked samples (AID 1159577); type: functional, cell-based
[7] = P. falciparum ATP4 D1247Y mutant growth inhibitors, dose response, NITD609-resistant line, SYBR Green, dry powder (AID 1159571); type: functional, cell-based;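 further: parasites synchronized at ring stage by sorbitol before testing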
[8] = test system: Streptococcus sp. 'group A'; test: growth inhibition of control SK(-) GAS strain, dose response, counter-screen for streptokinase expression inhibitor project, luminescence, kanamycin, BacTiterGlo, confirmation (AID 1900); type: functional, organism-based
Streptokinase A = biological target: T1, Streptokinase A (Streptococcus pyogenes serotype M1, UniProt P10520); test: S. pyogenes streptokinase expression inhibitors, potency, dose response, plasminogen activation absorbance, OD405 (AID 1914); type: functional, Streptococcus pyogenes M1 GAS;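 further: secreted streptokinase activity via plasminogen activation per viability signal from cell pellet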
T1 sequence (P10520 whole entry): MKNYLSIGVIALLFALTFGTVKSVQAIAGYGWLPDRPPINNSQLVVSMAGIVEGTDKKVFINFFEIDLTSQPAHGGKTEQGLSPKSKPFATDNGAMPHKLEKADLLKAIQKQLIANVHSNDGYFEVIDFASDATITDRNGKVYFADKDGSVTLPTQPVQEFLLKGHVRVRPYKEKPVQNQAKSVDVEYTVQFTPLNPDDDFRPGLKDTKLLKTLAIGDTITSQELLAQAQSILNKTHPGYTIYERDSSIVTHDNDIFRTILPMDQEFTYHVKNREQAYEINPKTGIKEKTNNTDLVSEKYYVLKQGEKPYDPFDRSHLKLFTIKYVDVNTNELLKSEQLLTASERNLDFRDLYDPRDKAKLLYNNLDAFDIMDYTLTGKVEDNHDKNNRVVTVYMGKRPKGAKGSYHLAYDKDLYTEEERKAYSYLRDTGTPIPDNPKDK

[9] = microbe, parasite or virus in culture; type: functional; settings: Mycobacterium tuberculosis
Streptococcus = test: Group A Streptococcus viability loss, dose response, counter-screen for streptokinase expression inhibitor project, luminescence, BacTiterGlo (AID 1915); type: functional, organism-based;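 further: potency for reduction of bacterial viability or growth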
[10] = biological target: Voltage-dependent T-type calcium channel subunit alpha-1H (Homo sapiens, UniProt O95180); type: functional;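 further: channel activity triggered by adding a high calcium stimulation buffer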
[11] = biological target: T2, Carboxy-terminal domain RNA polymerase II polypeptide A small phosphatase 1 (Homo sapiens, UniProt Q9GZU7); test: inhibitors of CTDSP1, concentration-response testing, biochemical assay, absorbance-based, actives from ultra-high-throughput screening (AID 540297); type: functional
T2 sequence (Q9GZU7 whole entry): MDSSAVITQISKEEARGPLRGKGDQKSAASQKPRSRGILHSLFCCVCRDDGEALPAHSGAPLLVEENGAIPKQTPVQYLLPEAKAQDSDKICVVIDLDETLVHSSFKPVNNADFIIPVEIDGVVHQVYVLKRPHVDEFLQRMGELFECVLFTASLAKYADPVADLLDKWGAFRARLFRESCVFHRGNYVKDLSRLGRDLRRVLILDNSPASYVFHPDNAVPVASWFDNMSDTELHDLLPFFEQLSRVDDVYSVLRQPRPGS

[12] = biological target: NAD-dependent protein deacylase sirtuin-5, mitochondrial (Homo sapiens, UniProt Q9NXA8); test: SIRT5 desuccinylase inhibitors, dose response, biochemical, fluorescence imaging, cherry-pick, set 5 (AID 720591);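 further: desuccinylation of succinyl peptide AMC substrate read as fluorescence after trypsin release; potency of inhibitors that lower fluorescence and may act on trypsin instead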
[13] = M. tuberculosis H37Rv growth inhibitors, H37Rv strain (AID 1626); type: functional
[14] = biological target: T3, Voltage-gated N-type calcium channel alpha-1B subunit/Amyloid beta A4 precursor protein-binding family A member 1 (Homo sapiens, UniProt Q00975+Q02410); type: protein assay
[15] = biological target: T3, Voltage-gated N-type calcium channel alpha-1B subunit/Amyloid beta A4 precursor protein-binding family A member 1; type: protein assay; remark: listed apart in the source
[16] = biological target: T4, Tyrosine-protein phosphatase non-receptor type 7 (Homo sapiens, UniProt P35236); test: inhibitors of human HePTP phosphatase, […], biochemical, absorbance, leukemia target (AID 521); type: functional
T4 sequence (P35236 whole entry): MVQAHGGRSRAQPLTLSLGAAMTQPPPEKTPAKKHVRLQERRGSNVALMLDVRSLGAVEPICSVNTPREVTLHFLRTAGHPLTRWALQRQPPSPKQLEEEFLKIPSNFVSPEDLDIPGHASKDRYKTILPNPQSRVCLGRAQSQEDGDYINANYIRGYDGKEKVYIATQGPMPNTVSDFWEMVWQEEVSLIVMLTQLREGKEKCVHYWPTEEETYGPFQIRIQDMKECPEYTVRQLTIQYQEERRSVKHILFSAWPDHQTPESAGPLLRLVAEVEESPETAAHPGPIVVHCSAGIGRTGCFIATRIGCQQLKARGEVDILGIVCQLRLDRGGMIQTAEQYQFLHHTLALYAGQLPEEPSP

[17] = inhibitors of intracellular T. cruzi replication, confirmation, NIH3T3 host cells, beta-gal luminescence (AID 2044); type: functional, cell-based;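 further: intracellular parasites grown in NIH/3T3 mouse fibroblasts as host cells; luminescent beta-galactosidase reporter signal from transgenic T. cruzi replicating inside host cells; inhibitors lower the luminescence signal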
[18] = cytotoxicity toward NIH3T3 fibroblasts, dose response, counter-screen, cell-based, ATP luminescence, mouse fibroblasts (AID 2010); type: functional;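 further: cells exposed to compound for about 90 hours before reading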
[19] = Luminescence Cell-Based Dose Response to Identify Activators of 5'UTR Stem-Loop Driven Prion Protein mRNA Translation in H4-C Neuroglioblastoma Cells. [Related pubchem assays: 1829 (Project Summary), 1814 (Primary HTS)]; type: functional
[20] = Luminescence Cell-Based Dose Response HTS to Identify Activators of Luciferase Translation or Activity in H4 […] Cells. [Related pubchem assays: 1829 (Project Summary), 1814 (Primary HTS)]; type: functional
H4 = test: Luminescence Cell-Based Dose Response HTS to Identify Activators of 5'UTR Stem-Loop Driven Prion Protein mRNA Translation in H4 Neuroglioblastoma Cells. [Related pubchem assays: 1829 (Project Summary), 1814 (Primary HTS)]; type: functional; settings: Homo sapiens
[21] = Luminescence Cell-Based Dose Response to Identify Activators of Luciferase Translation or Activity in H4-C Neuroglioblastoma Cells. [Related pubchem assays: 1829 (Project Summary), 1814 (Primary HTS)]; type: functional
[22] = Luminescence Cell-Based Dose Confirmation to Identify Activators of 5'UTR Stem-Loop Driven Alpha-Synuclein mRNA Translation in H4 Neuroglioblastoma Cells. [Related pubchem assays: 1829 (Project Summary), 1814 (Primary HTS)]; type: functional
Large T antigen = Large T antigen (Simian virus 40, UniProt P03070); type: functional, Betapolyomavirus macacae;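 further: Confirmatory-stage PubChem screen for compounds that inhibit SV40 T antigen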
Beta-galactosidase = Beta-galactosidase (Escherichia coli, UniProt Q8VNN2); test: beta-galactosidase enzyme inhibitors and activators, dose response, artefact control for CCR6 antagonist project, biochemical, E. coli enzyme, set 3 (AID 504712); type: functional
[23] = biological target: DNA dC->dU-editing enzyme APOBEC-3G (Homo sapiens, UniProt Q9HC16); test: Dose Response confirmation of small molecule APOBEC3G DNA Deaminase Inhibitors via a fluorescence-based single-stranded DNA deaminase assay. [Related pubchem assays (depositor defined):AID493012, AID493028]; type: functional
[24] = biological target: Heat shock protein HSP 90-alpha (Homo sapiens, UniProt P07900); type: functional, organism-based
[25] = Luminescence Cell-Based Dose Confirmation HTS to Identify Activators of 5'UTR Stem-Loop Driven Alpha-Synuclein mRNA Translation in H4 Neuroglioblastoma Cells. [Related pubchem assays: 1829 (Project Summary), 1814 (Primary HTS)]; type: functional

T3 sequence (Q00975 whole entry): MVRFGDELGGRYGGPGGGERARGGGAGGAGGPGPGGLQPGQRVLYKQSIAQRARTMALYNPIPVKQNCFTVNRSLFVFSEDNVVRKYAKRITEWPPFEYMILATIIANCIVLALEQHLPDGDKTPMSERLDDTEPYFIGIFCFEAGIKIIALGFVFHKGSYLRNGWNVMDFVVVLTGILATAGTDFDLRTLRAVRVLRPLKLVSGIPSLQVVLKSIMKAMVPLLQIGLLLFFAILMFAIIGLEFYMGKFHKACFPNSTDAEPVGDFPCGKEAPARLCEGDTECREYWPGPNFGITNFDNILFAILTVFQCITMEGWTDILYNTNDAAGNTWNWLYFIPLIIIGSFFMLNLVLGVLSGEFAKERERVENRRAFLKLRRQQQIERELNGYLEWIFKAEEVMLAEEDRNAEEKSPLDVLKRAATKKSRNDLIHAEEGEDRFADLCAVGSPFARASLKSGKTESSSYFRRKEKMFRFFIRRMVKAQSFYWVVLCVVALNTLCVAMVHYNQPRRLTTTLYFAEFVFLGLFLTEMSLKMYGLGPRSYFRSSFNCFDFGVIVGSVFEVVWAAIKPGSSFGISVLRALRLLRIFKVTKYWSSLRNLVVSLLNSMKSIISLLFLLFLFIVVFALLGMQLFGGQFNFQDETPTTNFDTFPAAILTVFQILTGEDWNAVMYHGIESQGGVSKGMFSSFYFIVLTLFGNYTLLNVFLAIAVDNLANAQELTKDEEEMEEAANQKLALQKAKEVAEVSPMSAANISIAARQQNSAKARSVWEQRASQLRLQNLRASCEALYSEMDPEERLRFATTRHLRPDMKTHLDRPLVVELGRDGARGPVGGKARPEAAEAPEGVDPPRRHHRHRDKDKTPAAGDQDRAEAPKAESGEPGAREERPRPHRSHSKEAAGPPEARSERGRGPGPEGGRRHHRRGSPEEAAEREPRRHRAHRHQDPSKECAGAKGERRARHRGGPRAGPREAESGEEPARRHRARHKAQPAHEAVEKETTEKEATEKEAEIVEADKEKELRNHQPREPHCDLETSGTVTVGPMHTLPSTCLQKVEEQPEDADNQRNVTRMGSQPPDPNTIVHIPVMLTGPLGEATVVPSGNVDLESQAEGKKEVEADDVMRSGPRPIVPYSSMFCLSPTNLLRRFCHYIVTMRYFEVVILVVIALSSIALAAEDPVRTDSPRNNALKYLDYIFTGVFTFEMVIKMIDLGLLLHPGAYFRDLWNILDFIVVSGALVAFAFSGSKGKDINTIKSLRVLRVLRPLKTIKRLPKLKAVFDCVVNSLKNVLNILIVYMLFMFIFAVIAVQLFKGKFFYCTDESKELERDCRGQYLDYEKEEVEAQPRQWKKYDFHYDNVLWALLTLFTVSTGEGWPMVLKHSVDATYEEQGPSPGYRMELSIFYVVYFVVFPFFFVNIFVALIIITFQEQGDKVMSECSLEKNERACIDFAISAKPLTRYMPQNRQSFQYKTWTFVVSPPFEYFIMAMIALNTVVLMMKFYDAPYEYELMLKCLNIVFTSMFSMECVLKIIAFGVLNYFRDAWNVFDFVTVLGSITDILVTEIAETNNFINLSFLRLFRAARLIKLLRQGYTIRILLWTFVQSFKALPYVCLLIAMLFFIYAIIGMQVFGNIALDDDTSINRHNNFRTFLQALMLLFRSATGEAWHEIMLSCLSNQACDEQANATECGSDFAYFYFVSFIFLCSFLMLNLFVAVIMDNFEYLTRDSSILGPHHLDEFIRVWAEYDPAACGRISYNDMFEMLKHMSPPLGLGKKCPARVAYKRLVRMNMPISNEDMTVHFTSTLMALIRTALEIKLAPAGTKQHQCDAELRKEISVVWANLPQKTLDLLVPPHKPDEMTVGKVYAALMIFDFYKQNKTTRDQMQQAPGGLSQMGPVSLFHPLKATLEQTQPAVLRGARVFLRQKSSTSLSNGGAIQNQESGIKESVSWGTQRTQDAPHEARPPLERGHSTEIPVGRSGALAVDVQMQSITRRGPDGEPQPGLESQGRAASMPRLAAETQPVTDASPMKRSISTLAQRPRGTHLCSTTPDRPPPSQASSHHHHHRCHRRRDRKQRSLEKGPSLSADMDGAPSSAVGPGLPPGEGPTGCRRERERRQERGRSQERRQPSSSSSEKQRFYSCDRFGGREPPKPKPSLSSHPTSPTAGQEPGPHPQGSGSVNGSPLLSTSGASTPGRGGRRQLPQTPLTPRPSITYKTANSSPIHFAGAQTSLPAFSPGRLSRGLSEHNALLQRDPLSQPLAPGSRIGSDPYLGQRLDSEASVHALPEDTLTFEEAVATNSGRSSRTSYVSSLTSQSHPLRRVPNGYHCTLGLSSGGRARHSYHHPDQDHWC
T3 sequence (Q02410 whole entry): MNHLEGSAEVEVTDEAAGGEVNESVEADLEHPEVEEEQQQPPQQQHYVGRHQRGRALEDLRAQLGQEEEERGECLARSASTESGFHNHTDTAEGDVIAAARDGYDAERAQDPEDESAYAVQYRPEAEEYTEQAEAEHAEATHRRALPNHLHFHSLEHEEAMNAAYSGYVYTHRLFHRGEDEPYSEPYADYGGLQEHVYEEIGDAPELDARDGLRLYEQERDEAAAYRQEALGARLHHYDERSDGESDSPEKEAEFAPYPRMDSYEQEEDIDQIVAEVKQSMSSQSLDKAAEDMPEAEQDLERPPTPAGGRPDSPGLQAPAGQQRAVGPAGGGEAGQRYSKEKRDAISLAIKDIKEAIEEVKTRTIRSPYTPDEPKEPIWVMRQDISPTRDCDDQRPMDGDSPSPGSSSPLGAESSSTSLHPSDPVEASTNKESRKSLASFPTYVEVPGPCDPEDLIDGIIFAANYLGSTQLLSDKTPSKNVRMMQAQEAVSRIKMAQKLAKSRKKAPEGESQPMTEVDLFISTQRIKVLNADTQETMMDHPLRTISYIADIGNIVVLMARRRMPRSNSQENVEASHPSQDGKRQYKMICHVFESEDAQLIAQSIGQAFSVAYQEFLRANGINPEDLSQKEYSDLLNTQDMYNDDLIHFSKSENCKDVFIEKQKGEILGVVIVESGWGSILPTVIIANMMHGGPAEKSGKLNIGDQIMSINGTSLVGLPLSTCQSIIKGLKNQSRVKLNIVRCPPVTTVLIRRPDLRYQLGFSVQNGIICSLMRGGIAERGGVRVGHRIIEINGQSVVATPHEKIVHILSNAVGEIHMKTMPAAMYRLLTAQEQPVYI
E3 ubiquitin-protein ligase Mdm2, sequence (Q00987 whole entry): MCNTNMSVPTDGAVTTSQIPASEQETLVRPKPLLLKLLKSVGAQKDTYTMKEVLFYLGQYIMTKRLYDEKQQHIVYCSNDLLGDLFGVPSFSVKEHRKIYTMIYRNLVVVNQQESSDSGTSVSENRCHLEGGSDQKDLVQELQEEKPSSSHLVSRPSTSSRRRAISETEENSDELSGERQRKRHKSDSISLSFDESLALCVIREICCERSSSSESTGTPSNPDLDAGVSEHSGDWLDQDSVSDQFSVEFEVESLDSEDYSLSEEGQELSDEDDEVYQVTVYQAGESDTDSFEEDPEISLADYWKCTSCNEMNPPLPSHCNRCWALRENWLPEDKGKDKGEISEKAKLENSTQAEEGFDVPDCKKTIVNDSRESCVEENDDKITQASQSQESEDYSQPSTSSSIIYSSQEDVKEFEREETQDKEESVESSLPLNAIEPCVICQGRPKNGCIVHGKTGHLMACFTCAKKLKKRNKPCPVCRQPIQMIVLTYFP
DNA dC->dU-editing enzyme APOBEC-3G, sequence (Q9HC16 whole entry): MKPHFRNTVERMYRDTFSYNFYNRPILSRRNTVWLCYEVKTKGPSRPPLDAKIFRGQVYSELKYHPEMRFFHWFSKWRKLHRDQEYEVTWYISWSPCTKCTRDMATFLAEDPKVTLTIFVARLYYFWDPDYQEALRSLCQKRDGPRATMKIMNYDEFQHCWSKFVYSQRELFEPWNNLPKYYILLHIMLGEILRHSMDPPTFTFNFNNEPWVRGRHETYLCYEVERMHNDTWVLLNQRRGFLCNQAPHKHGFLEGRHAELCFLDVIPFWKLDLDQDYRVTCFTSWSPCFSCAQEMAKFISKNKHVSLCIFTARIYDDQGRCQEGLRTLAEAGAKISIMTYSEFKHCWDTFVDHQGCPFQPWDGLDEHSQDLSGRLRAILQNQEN
NAD-dependent protein deacylase sirtuin-5, mitochondrial, sequence (Q9NXA8 whole entry): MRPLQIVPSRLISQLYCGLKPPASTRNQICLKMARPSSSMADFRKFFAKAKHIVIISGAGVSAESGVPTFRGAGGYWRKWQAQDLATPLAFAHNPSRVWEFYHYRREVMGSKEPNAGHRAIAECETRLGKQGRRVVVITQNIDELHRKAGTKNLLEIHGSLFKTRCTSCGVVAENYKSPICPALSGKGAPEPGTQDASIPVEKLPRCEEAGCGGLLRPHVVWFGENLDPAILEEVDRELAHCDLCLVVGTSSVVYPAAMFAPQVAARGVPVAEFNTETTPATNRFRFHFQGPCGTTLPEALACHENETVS
Large T antigen, sequence (P03070 whole entry): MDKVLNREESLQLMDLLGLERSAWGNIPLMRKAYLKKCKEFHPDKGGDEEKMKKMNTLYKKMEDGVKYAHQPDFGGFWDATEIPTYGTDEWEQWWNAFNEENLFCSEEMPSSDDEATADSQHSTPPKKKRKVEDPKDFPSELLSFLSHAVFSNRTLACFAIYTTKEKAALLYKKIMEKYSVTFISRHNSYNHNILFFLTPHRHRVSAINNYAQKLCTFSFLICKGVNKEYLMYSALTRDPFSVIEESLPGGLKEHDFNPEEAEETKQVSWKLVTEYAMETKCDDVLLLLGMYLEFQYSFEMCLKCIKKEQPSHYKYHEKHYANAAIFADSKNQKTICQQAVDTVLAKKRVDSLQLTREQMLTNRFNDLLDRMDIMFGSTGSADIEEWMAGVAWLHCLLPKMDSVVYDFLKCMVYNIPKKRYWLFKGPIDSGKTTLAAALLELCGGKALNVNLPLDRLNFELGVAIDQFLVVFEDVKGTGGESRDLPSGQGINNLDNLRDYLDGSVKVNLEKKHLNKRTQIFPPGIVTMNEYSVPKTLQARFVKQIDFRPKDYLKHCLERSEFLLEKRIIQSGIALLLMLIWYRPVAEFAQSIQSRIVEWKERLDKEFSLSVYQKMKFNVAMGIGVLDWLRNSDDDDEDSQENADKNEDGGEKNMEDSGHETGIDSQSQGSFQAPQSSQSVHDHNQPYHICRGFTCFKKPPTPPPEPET

Cc1cc(C)nc(S/C=C/C(=O)c2ccc(F)cc2)n1
EC50 [1]: 0.81 µM (active)

CCCc1cn(CC[C@H]2CC[C@@H](NS(=O)(=O)c3ccc(-c4ccccc4)cc3)[C@@H](CO)O2)nn1
AC50 [2]: 0.963 µM (active)
AC50 [3]: 47.4 µM (active)
AC50 [4]: 0.689 µM (active)
AC50 [5]: 0.914 µM (active)
AC50 [6]: > 39 µM (inactive)
AC50 [7]: 0.833 µM (active)

O=C(OCc1ccccc1)c1cccc(-c2nnn(Cc3ccccc3)n2)c1
EC50 [8]: > 150 µM (not active)
EC50 (Streptokinase A): 26 µM (inconclusive)
CC50 [9]: > 40 µM (active)
EC50 (Streptococcus): > 150 µM (not active)
EC50 [10]: 9.03 µM (active)

O=C(O)CSc1ncnc2c1sc1nc(-c3ccccc3)c3c(c12)CCC3
IC50 [11]: 4.04 µM (active)
AC50 [12]: > 30 µM (inactive)

O=C(CCSc1ccccc1)Nc1nnc(-c2ccccc2)o1
IC50 [13]: > 100 µM (active)

CN(C)c1nc(-c2ccccc2)[n+](C)s1
IC50 [14]: 3.76 µM (active)
IC50 [15]: > 50 µM (inactive)

CCC(=O)Nc1ccc(NC(=O)c2ccco2)c(OC)c1
IC50 [16]: > 100 µM (not active)

CC1(C)CC2=Nc3nc(SCCN4CCOCC4)nc(O)c3C(c3cccs3)C2=C(O)C1 (stereo not given)
EC50 [1]: 47.7 µM (not active)

CCCOc1ccccc1Cn1c(=O)oc2ccc(C)cc21
EC50 [10]: 10.6 µM (active)

CCOC(=O)c1c(NC(=O)Cn2cnc([N+](=O)[O-])n2)sc2c1CCC(C)C2 (stereo not given)
EC50 [17]: < 0.1 µM (active)
EC50 [18]: > 60 µM (not active)
EC50 (cells): 0.221 µM (active)

c1ccc(-n2ncc3c(N4CCC5(CC4)OCCO5)ncnc32)cc1
EC50 [19]: 1.1 µM (active)
EC50 [20]: < 0.1 µM (active)
EC50 (H4): > 120 µM (not active)
EC50 [21]: 0.364 µM (active)
EC50 [22]: 0.247 µM (active)

COc1cc(N2C(=O)C=CC2=O)c(OC)cc1Cl
IC50 [14]: 11.6 µM (active)
IC50 (Large T antigen): 54.6 µM (active)
IC50 [15]: 1.97 µM (active)
IC50 (Beta-galactosidase): > 66.6 µM (inactive)
IC50 [23]: 44 µM (active)
AC50 [24]: 2.72 µM (active)

O=C(c1cc(COc2ccc(F)cc2Cl)on1)N1CCSCC1
EC50 [19]: > 12 µM (not active)
EC50 [25]: 0.787 µM (active)
EC50 [20]: 4 µM (active)
EC50 (H4): 0.1 µM (active)
EC50 [21]: > 12 µM (not active)
EC50 [22]: 0.63 µM (active)
